Measured values from US20140038989A1, “TETRAHYDROPYRAZOLO [1,5-A] PYRIMIDINE AS ANTI-TUBERCULOSIS COMPOUNDS” (Glaxo Group Limited, priority 2011, published 2014).
Values after ≈ are worked out from the molar mass of the structure shown.

Test system: Mycobacterium tuberculosis H37Rv
Test: Mycobacterium tuberculosis H37Rv Inhibition Assay (Whole Cell Assay)
Type: cell-based
Settings: ATCC 25618 / H37Rv, H37Rv strain (ATCC25618), Middlebrook 7H9, six days at 37° C., resazurin fluorescence after 48 hours

Row | SMILES | MIC
1 | Cc1ccc([C@H]2C[C@@H](C(F)(F)F)n3ncc(C(=O)NCc4ccco4)c3N2)cc1 (relative stereo) [56′, Cis-N-(furan-2-ylmethyl)-5-(p-tolyl)-7-(trifluoromethyl)-4,5,6,7-tetrahydropyrazolo[1,5-a]pyrimidine-3-carboxamide, reference compound] | > 2 µM
2 | CCc1ccc([C@H]2C[C@@H](C(F)(F)F)n3ncc(C(=O)NCc4ccc(OC)cc4)c3N2)cc1 (relative stereo) [Example 1, Cis-5-(4-ethylphenyl)-N-(4-methoxybenzyl)-7-(trifluoromethyl)-4,5,6,7-tetrahydropyrazolo[1,5-a]pyrimidine-3-carboxamide] | ≤ 1 µM
3 | CCc1ccc([C@H]2C[C@@H](C(F)(F)F)n3ncc(C(=O)NCc4cccc(C)c4)c3N2)cc1 (relative stereo) [Example 3, Cis-5-(4-ethylphenyl)-N-(3-methylbenzyl)-7-(trifluoromethyl)-4,5,6,7-tetrahydropyrazolo[1,5-a]pyrimidine-3-carboxamide] | ≤ 1 µM
4 | CCc1ccc([C@H]2C[C@@H](C(F)(F)F)n3ncc(C(=O)NCc4ccc(C)o4)c3N2)cc1 (relative stereo) [Example 4, Cis-5-(4-ethylphenyl)-N-((5-methylfuran-2-yl)methyl)-7-(trifluoromethyl)-4,5,6,7-tetrahydropyrazolo[1,5-a]pyrimidine-3-carboxamide] | ≤ 1 µM
5 | CCc1ccc([C@H]2C[C@@H](C(F)(F)F)n3ncc(C(=O)NCC4CCCCC4)c3N2)cc1 (relative stereo) [Example 5, Cis-N-(cyclohexylmethyl)-5-(4-ethylphenyl)-7-(trifluoromethyl)-4,5,6,7-tetrahydropyrazolo[1,5-a]pyrimidine-3-carboxamide] | ≤ 1 µM
6 | CCc1ccc([C@H]2C[C@@H](C(F)(F)F)n3ncc(C(=O)NCc4ccc(C(F)(F)F)cc4)c3N2)cc1 (relative stereo) [Example 6, Cis-5-(4-ethylphenyl)-7-(trifluoromethyl)-N-(4-(trifluoromethyl)benzyl)-4,5,6,7-tetrahydropyrazolo[1,5-a]pyrimidine-3-carboxamide] | ≤ 1 µM
7 | CCc1ccc([C@H]2C[C@@H](C(F)(F)F)n3ncc(C(=O)NCc4cccc(OC)c4)c3N2)cc1 (relative stereo) [Example 8, Cis-5-(4-ethylphenyl)-N-{[3-(methyloxy)phenyl]methyl}-7-(trifluoromethyl)-4,5,6,7-tetrahydropyrazolo[1,5-a]pyrimidine-3-carboxamide] | ≤ 1 µM
8 | CCc1ccc([C@H]2C[C@@H](C(F)(F)F)n3ncc(C(=O)NCc4ccc(C)c(Cl)c4)c3N2)cc1 (relative stereo) [Example 9, Cis-N-(3-chloro-4-methylbenzyl)-5-(4-ethylphenyl)-7-(trifluoromethyl)-4,5,6,7-tetrahydropyrazolo[1,5-a]pyrimidine-3-carboxamide] | ≤ 1 µM
9 | CCc1ccc([C@H]2C[C@@H](C(F)(F)F)n3ncc(C(=O)NCc4cccn4C)c3N2)cc1 (relative stereo) [Example 10, Cis-5-(4-ethylphenyl)-N-[(1-methyl-1H-pyrrol-2-yl)methyl]-7-(trifluoromethyl)-4,5,6,7-tetrahydropyrazolo[1,5-a]pyrimidine-3-carboxamide] | 1 to 2 µM (≈ 0.431 to 0.863 µg/mL)
10 | CCc1ccc([C@H]2C[C@@H](C(F)(F)F)n3ncc(C(=O)NCc4ccc(N(C)C)cc4)c3N2)cc1 (relative stereo) [Example 11, Cis-N-(4-(dimethylamino)benzyl)-5-(4-ethylphenyl)-7-(trifluoromethyl)-4,5,6,7-tetrahydropyrazolo[1,5-a]pyrimidine-3-carboxamide] | 1 to 2 µM (≈ 0.472 to 0.943 µg/mL)
11 | CCc1ccc([C@H]2C[C@@H](C(F)(F)F)n3ncc(C(=O)NCc4ccoc4)c3N2)cc1 (relative stereo) [Example 12, Cis-5-(4-ethylphenyl)-N-(furan-3-ylmethyl)-7-(trifluoromethyl)-4,5,6,7-tetrahydropyrazolo[1,5-a]pyrimidine-3-carboxamide] | ≤ 1 µM
